Data reported in US11046699B2, “Pyrazolo-pyrimidin-amino-cycloalkyl compounds and their therapeutic uses” (RAPT THERAPEUTICS, INC., priority 2018, dated 2021).
pIC50: −log10 of the molar value.

target: GCN2 (Homo sapiens, UniProt Q9P2K8); test: GCN2 enzymatic endpoint assay: phosphorylation of GFP-eIF2α measured by TR-FRET (Lanthascreen); type: biochemical; settings: GCN2 biochemical IC50; 4 nM GCN2, 2 μM ATP, 80 nM GFP-eIF2α, 90 min RT; read-out: GCN2 activity
Outline: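 Read-out is the TR-FRET ratio of acceptor signal at 520 nm to terbium donor at 495 nm, rising with antibody binding to phosphorylated GFP-eIF2α. Endpoint format: 2 μM ATP, 80 nM substrate, 90 minutes at room temperature, EDTA stop.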

Chain of GCN2 (Q9P2K8 whole entry): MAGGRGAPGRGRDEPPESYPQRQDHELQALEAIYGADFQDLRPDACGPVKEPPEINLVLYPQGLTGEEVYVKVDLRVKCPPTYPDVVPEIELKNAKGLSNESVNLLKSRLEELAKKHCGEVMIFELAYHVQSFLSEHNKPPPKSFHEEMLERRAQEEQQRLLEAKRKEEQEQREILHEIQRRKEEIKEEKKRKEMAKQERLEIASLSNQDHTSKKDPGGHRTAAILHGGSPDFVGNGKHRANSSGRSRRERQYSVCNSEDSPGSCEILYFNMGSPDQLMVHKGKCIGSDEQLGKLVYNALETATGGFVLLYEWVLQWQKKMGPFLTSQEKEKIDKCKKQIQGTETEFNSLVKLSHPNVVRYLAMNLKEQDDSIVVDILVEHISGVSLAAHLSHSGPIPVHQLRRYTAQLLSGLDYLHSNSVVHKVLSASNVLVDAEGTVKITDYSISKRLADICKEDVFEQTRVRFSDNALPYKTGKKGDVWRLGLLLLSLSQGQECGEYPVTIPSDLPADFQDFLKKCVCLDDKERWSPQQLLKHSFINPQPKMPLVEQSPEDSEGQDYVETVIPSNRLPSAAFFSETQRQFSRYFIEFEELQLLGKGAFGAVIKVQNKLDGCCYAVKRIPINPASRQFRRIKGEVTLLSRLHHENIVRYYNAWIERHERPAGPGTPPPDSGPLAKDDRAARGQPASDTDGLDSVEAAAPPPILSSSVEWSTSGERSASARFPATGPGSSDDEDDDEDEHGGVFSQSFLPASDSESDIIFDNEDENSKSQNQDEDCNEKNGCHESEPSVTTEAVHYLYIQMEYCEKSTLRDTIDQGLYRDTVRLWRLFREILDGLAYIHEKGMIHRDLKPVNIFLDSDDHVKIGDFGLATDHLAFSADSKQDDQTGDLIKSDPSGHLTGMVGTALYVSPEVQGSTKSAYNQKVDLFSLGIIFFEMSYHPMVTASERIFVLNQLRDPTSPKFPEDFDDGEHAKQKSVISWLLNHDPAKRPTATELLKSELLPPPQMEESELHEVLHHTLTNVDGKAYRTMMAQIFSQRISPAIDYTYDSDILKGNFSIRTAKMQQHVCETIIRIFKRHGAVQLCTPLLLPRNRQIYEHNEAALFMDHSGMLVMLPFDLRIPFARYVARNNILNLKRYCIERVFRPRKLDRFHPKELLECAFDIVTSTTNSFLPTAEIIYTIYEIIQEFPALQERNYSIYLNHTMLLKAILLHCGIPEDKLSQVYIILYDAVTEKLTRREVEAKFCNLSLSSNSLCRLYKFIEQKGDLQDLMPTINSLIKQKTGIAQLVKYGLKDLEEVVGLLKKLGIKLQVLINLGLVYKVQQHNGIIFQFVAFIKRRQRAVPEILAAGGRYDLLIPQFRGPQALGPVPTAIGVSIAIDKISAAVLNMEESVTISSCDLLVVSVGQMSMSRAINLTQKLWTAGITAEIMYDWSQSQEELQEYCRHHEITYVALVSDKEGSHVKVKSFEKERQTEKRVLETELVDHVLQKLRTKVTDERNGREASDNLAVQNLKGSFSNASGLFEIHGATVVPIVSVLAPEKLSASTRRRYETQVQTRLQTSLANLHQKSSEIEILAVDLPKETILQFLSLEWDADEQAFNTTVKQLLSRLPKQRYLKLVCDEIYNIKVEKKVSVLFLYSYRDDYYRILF

Row | pIC50 | SMILES
1 | > 7.60 | CNS(=O)(=O)[C@@H]1CC[C@@H](Nc2ncc3c(Br)nn(-c4ccc(-c5nnc(C)s5)cc4)c3n2)C1 [Example 68, (1R,3R)-3-((3-bromo-1-(4-(5-methyl-1,3,4-thiadiazol-2-yl)phenyl)-1H-pyrazolo[3,4-d]pyrimidin-6-yl)amino)-N-methylcyclopentane-1-sulfonamide]

same assay, conditions: tested as described in Example 77; compound and/or hydrochloride, dihydrochloride or trifluoroacetic acid salt; read-out: IC 50 Activity

Row | SMILES | pIC50
2 | COC1CCN(C(=O)[C@]2(C)CC[C@@H](Nc3ncc4c(Br)nn(-c5cc(F)c6ncccc6c5)c4n3)C2)C1 (stereo partly drawn) [[(1R,3R)-3-[[3-bromo-1-(8-fluoro-6-quinolyl)pyrazolo[3,4-d]pyrimidin-6-yl]amino]-1-methyl-cyclopentyl]-(3-methoxypyrrolidin-1-yl)methanone] | 6.70 to 7.60
3 | CNC(=O)C1(C)CC[C@@H](Nc2ncc3c(Br)nn(-c4cc(CO)cc(C(C)(C)C)c4)c3n2)C1 (stereo partly drawn) | 6.70 to 7.60
4 | CNC(=O)[C@]1(C)CC[C@@H](Nc2ncc3c(Br)nn(-c4cc(Cl)cc(CNS(C)(=O)=O)c4)c3n2)C1 [(1R,3R)-3-[[3-bromo-1-[3-chloro-5-(methanesulfonamidomethyl)phenyl]pyrazolo[3,4-d]pyrimidin-6-yl]amino]-N,1-dimethyl-cyclopentanecarboxamide] | 6.70 to 7.60
5 | O=C([C@@H]1CC[C@@H](Nc2ncc3c(Br)nn(-c4ccc5ncccc5c4)c3n2)C1)N1CCN[C@@H](CCO)C1 [((1R,3R)-3-((3-bromo-1-(quinolin-6-yl)-1H-pyrazolo[3,4-d]pyrimidin-6-yl)amino)cyclo-pentyl)((S)-3-(2-hydroxyethyl)piperazin-1-yl) methanone] | 6.70 to 7.60
6 | O=C([C@@H]1CC[C@@H](Nc2ncc3c(Br)nn(-c4cc(F)c5ncccc5c4)c3n2)C1)N1CCN2CCOC[C@@H]2C1 [((1R,3R)-3-((3-bromo-1-(8-fluoroquinolin-6-yl)-1H-pyrazolo[3,4-d]pyrimidin-6-yl)amino)cyclopentyl)((S)-hexahydropyrazino[2,1-c] [1,4]oxazin-8(1H)-yl)methanone] | 6.70 to 7.60
7 | CNC(=O)[C@@]1(CC(F)F)CC[C@@H](Nc2ncc3c(Br)nn(-c4cc(CCO)c5ncccc5c4)c3n2)C1 [(1S,3R)-3-[[3-bromo-1-[8-(2-hydroxyethyl)-6-quinolyl]pyrazolo[3,4-d]pyrimidin-6-yl]amino]-1-(2,2-difluoroethyl)-N-methyl-cyclopentanecarboxamide] | 6.70 to 7.60
8 | CNC(=O)[C@]1(C)CC[C@@H](Nc2ncc3c(Br)nn(-c4ccc(-c5ccn(C)n5)cc4)c3n2)C1 [(1R,3R)-3-[[3-bromo-1-[4-(1-methyl-pyrazol-3-yl)phenyl]pyrazolo[3,4-d]pyrimidin-6-yl]amino]-N,1-dimethyl-cyclopentanecarboxamide] | 6.70 to 7.60

The remaining lines, values ahead:

Row | pIC50 | SMILES
9 | 6.70 to 7.60 | CNC(=O)[C@]1(C)CC[C@@H](Nc2ncc3c(Br)nn(-c4cc(F)cc(CC#N)c4)c3n2)C1 [(1R,3R)-3-[[3-bromo-1-[3-(cyanomethyl)-5-fluoro-phenyl]pyrazolo[3,4-d]pyrimidin-6-yl]amino]-N,1-dimethyl-cyclopentane-carboxamide]
10 | 6.70 to 7.60 | Cc1nnc(-c2ccc(-n3nc(Br)c4cnc(N[C@@H]5CCC6(CC(=O)N(C)C6=O)C5)nc43)cc2CCC#N)s1 (stereo partly drawn) [3-[5-[3-bromo-6-[[(8R)-2-methyl-1,3-dioxo-2-azaspiro[4.4]nonan-8-yl]amino]pyrazolo[3,4-d]pyrimidin-1-yl]-2-(5-methyl-1,3,4-thiadiazol-2-yl)phenyl]propanenitrile; 2,2,2-trifluoroacetic acid]
11 | > 7.60 | C[C@@]1(C(=O)O)CC[C@@H](Nc2ncc3c(Br)nn(-c4cc(CCN)c5ncccc5c4)c3n2)C1 [(1R,3R)-3-[[1-[8-(2-aminoethyl)-6-quinolyl]-3-bromo-pyrazolo[3,4-d]pyrimidin-6-yl]amino]-1-methyl-cyclopentanecarboxylic acid]
12 | > 7.60 | CNC(=O)[C@]1(C)CC[C@@H](Nc2ncc3c(Br)nn(-c4cc(CCN)c5cnccc5c4)c3n2)C1
